Results on one compound are retold here after PMC4427186, “Forskolin Suppresses Delayed-Rectifier K^+ Currents and Enhances Spike Frequency-Dependent Adaptation of Sympathetic Neurons” (PLoS ONE, 2015).

The assay addresses T1, Kv2.1 α subunit (Rattus norvegicus, UniProt P15387).
T1 construct: gene Kcnb1; homomeric channel
T1 sequence (P15387 1-857): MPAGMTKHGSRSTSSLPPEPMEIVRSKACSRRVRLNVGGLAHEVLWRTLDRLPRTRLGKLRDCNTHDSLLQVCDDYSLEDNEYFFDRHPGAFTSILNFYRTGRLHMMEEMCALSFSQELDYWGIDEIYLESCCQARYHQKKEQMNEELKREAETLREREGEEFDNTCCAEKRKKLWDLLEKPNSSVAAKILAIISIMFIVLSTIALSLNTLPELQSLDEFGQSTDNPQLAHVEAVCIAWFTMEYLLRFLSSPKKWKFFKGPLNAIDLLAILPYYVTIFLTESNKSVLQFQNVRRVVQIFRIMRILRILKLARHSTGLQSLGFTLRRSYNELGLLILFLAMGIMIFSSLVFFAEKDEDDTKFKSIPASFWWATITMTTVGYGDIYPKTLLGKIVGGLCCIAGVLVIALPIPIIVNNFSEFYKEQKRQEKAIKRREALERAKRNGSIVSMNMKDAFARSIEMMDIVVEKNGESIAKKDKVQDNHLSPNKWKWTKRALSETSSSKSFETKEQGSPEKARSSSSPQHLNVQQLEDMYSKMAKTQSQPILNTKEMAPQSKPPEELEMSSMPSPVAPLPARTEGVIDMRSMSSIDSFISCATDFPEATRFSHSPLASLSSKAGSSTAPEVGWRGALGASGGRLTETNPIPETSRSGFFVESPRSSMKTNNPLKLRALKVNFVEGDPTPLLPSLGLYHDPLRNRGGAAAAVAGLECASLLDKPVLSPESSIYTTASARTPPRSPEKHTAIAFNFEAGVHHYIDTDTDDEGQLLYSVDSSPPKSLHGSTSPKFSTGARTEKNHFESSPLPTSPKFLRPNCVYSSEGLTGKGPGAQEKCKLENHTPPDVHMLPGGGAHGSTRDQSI
The experiment in a line: whole-cell patch clamp, tail current amplitude. The class given is cell-based.

The compound `C=C[C@@]1(C)CC(=O)[C@]2(O)[C@@]3(C)[C@@H](O)CCC(C)(C)[C@@H]3[C@H](O)[C@H](OC(C)=O)[C@@]2(C)O1` [forskolin] showed an IC50 of 31.6 µM.
